Results reported in US20140221472A1, “USE OF MYRICETIN OR DERIVATIVES THEREOF AS A CATHEPSIN K INHIBITOR” (JILINSHENG JINZIYUAN BIOTECHNOLOGY LTD, priority 2013, published 2014).

Experiments:
[1] = system: BALB/C mice; assay: Maximum tolerated dose acute toxicity test; assay type: in vivo; conditions: 100 g/kg body weight, single gavage, observed 2 weeks
From the text: BALB/C mice were bred by Harbin Veterinary Research Institute of Experimental Animal Center, Chinese Academy of Agricultural Sciences, and the animal quality permit number is Heilongjiang-SYXK 2006-032. The selection conditions are age at 9 weeks to 10 weeks, weighing about 20 g, half male and half female.
The animal laboratory had regular air ventilation, good lighting, and constant laboratory room temperature. There were five mice per cage, and they were fed with extruded feed produced specifically for mice, with free access to drinking water.
Firstly, the acute toxicity tests were conducted on to evaluate the safety of myricetin in order to provide the basis for the therapeuticapplication of myricetin. In this study, the maximum tolerated dose acute toxicity test was used. Twenty of BALB/C mice with the healthy body weight about 20 g, half male and half femalewere selected, The clinical intended route of administration is oral, so this experiment used intragastric administration. Myricetin (purchased from Shanghai Chemical Co., Ltd. Item No. A0145, Myricetin; 3,5,7,3,4′,5′-hexahydroxyflavone, CAS No: 529-44-2. Pure and natural extracts, purity ismore than 98.5% confirmed by NMR and HPLC purity analysis) was modulated into a stick-like with distilled water. Dosed at […] body weight, gavage was conducted to the mice (about 200 mg myricetin per mouse). […]

[2] = system: type II collagen-induced arthritis mice; assay: Bovine type II collagen-induced arthritis in mice; assay type: in vivo
Description: Firstly, same strains and sources of animals as shown in Example 2 were selected, and total 105 of 9-week-old BALB / C mice were fed under the same conditions. There were 70 mice that each had subcutaneous injection of 200 ug of Freund's adjuvant emulsified bovine type II collagen. 15 days after the first immunization, subcutaneous injection was applied again at 200 ug per mouse with incomplete Freund's adjuvant emulsified bovine type H collagen to strengthen the immunity. After 24 days of the first injection, the 70 mice were divided into two groups, of which 35 mice were treated with myricetin intake orally 25 mg/kg body weight daily as a treated-group, while the other 35 were the model control group fed normally without myricetin. The remaining 35 mice were the normal control group without immunization and fed with normal food, used as a blank control.
Throughout the testing period, arthritis conditions of the mice and arthritic conditions after the treatment were observed. After immunization with type II collagen on mice, the conventional methods were used by measuring the degree of paw swelling (thickness) (see FIG. 3) and weight change (see FIG. 4), and myricetin therapeutic effects were monitored and evaluated throughout the procedure (0.5 mm increased thickness for one magnitude) (see FIG. 5).
On the 48 day, the blood from the heart was extracted, and the serum was separated, meanwhile all mice were killed. The mouse urinary deoxypyridinoline (urinary deoxypyridinoline) (see FIG. 6), type I collagen C telopeptide (CTX-I) (see FIG. 7) and serum cartilage oligomeric matrix protein (COMP) were examined, and histological treatment evaluation were conducted (see FIG. 8).
The mouse urinary deoxypyridinolineideoxypyridinoline kit (DPD kit from Shanghai Huyu Biotech Co., Ltd., No. HY-E3170B) was used. According to the instructions provided, iMark-BIO-RAD microplate reader (U.S. BIO-RAD) was used to detect the concentration of mouse urinary deoxypyridinoline at 450 wavelength (see FIG. 6).
Rat C-terminal peptide of type I collagen (CTX-I) ELISA Kit from Shanghai Jima Biotech Co., Ltd., NO Wk30026) was used. According to the method provided by the kit instruction, the change in the content of type I collagen C-terminal peptide in mice serum was detected to evaluate the effect that myricetin prevented type I collagen degradation by suppressing cathepsin K (see FIG. 7).
The cartilage oligomeric matrix protein ELISA kit (from Shanghai Yihan Biotech Co., Ltd., No. SU10580) was used.
After killing of the mice, the paws were fixed with 4% formaldehyde for 24 hours, then decalcificated using 500 mmol of EDTA […]. The paraffin sections were prepared using the conventional method and stained with hematoxylin / eosin staining method. […] The synovial surface almost disappeared with a rough surface in a grid pattern, and there were a large number of macrophages. […] It can be concluded that by myricetin therapeutic administration, the mice arthritis is mostly recovered (see FIG. 9).
Based on mice joint tissue sections, according to methods from Larsson et. al. (Rheumatology (Oxford), 2004, 43 (4),428-434),the therapeutic effect of myricetin on rheumatoid arthritis in mice was evaluated, as well as the degree of arthritis. Main evaluation were based on: (1) the size of the joint cavity, inflammatory cell infiltration, cartilage damage and fibrin deposition. From three individual evaluations, it was divided into three levels, which are 0 for normal, level 1 for the light degree of arthritis, level 2 for the moderate arthritis and level 3 for severe arthritis (see FIGS. 3 and 5). (2) The weight change (see FIG. 4). (3) histology examination (see FIG. 9) and evaluation (see FIGS. 10 and 11).

[3] = cited from earlier work
[4] = left in air; becomes green; cited from earlier work
[5] = biological target: T1, cathepsin K (Homo sapiens, UniProt P43235); assay: Cathepsin K activity with fluorogenic substrate HD-Ala-Leu-Lys-AMC; assay type: biochemical; parameters: made in house; conditions: 100,200,500,1000 uM; fluorescence 390/460 nm; effect enhanced as concentration increased
T1 sequence (P43235 115-329): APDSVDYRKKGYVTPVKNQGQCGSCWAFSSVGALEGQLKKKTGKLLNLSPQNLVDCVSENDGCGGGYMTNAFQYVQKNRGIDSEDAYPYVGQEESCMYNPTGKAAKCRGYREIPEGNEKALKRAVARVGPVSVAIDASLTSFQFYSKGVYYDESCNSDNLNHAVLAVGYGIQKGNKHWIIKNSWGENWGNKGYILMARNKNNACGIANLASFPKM
Description: Using a Fluoroskan Ascent, recombinant cathepsin K inhibition ratios with different concentration of myricetin were calculated after completion of the reaction and the IC50 value was determined.
In order to determine the inhibitory effect of myricetin on cathepsin K activity, a cathepsin. K specific fluorogenic substrate HD-Ala-Leu-Lys-AMC (Cat. No. 104881-72-3, purchased from GL Biochem (Shanghai) Co., Ltd.) was used and Cary Eclipse fluorescence spectrophotometer (Agilent Technologies Inc., Beijing) for quantitative analysis was applied. 1 ug of cathepsin K-specific fluorogenic substrate HD-ALK-AMC, 1 ug cathepsin K, myricetin compounds dissolved in 20% ethanol with final concentrations of 100,200,500,1000 uM were added into 50 mM of phosphate buffer. An additional 50 mM of phosphate buffer (pH6.0) was added to bring a total volume of 500 uL. And the reaction sample was inhibited at 37° C. for 15 hours in a water bath. As a positive control without any candidate compound, 1 ug of cathepsin K specific fluorogenic substrate HD-ALK-AMC and 1 ug of cathepsin K, and 50 mmol phosphate buffer solution (pH6.0) were added to bring a total volume of 500 uL. […] After completion of the reaction, the samples were measured at 390 nm excitation wavelength and 460 nm emission wavelength for fluorescence intensity changes assay, and the value of cathepsin K activity was calculated.

[6] = biological target: T1, cathepsin K; assay: Cathepsin K induced collagen degradation, SDS-PAGE screening; assay type: biochemical; parameters: made in house; host or cells: yeast cells (the cited Linnevers et al. method uses Pichia pastoris); conditions: 100 uM myricetin, collagen type I/II substrate, pH 6.0, 37° C., 15 hours
From the text: A series of Chinese herbal medicine of monomer myricetin were purchased from Shanghai Jingke Chemical Co., Ltd.,(Cat. No. A0145, 3,5,7,3′, 4′, 5′-hexahydroxyflavone, CAS No: 529-44-2). It was purified from natural plant (the purity is more than 98.5% confirmed by NMR and HPLC purity assay) and was used as an inhibitor candidate compound. Meanwhile, collagen type I (Cat No. SU2087) and collagen type II (Cat No. SU2088) were purchased from SIGMA and were used as a substrate for cathepsin K. For screening experiments, […] and 1 ug cathepsin K were added into 50 mM phosphate buffer (pH6.0), then myricetin compounds dissolved in 20% ethanol were added with the final concentrations of 100,200,500,1000 uM, respectively, finally an additional 50 mM of phosphate buffer (pH 6.0) was added again to bring a total volume of 500 uL. The reactions were incubated at 37° C. for 15 hours in a water bath. As a positive control without any candidate compound, 100 ug collagen, […], and 50 mM phosphate buffer solution (pH6.0) were added to bring a total volume of 500 uL. […] After completion of the reactions, the reaction samples were applied to 10% SDS-PAGE gel electrophoresis, coomassie blue staining and destaining, and the intensity of the stained protein bands were analyzed. […]

O=c1c(O)c(-c2cc(O)c(O)c(O)c2)oc2cc(O)cc(O)c12 [myricetin, 3,5,7-Trihydroxy-2-(3,4,5-trihydroxyphenyl)-4H-1-benzopyran-4-one]
symptoms of poisoning and death [1]: free of any symptoms of poisoning | arthritis symptoms (paw swelling, clinical score) ([2]; 25 mg/kg daily orally from day 24 to 48, vs immunized mice): significantly improved | degree of arthritis ([2]; 25 mg/kg p.o., compared with the model group, P<0.05): significantly reduced | concentration of urinary deoxypyridinoline ([2]; 25 mg/kg p.o., day 48, ELISA, vs control group, P<0.001): significantly lower | content of type I collagen C-terminal peptide in mice serum ([2]; 25 mg/kg p.o., day 48, ELISA, vs model control group, P<0.001): significantly lower | content of cartilage oligomeric matrix protein in mice serum ([2]; 25 mg/kg p.o., day 48, ELISA, vs model control group, P<0.005): significantly lower | synovial surface pathological changes (histology) ([2]; 25 mg/kg p.o., day 48, hematoxylin/eosin paw sections): significantly reduced pathological changes | focal hyperplasia of the synovial lining cells ([2]; end of study, ankle joint sections, hematoxylin and eosin, FIG. 9): undetectable | hind leg swelling and redness with ankle joint thickening ([2]; end of study, representative photographs, FIG. 9): attenuated | solubility in chloroform and petroleum ([3]; chloroform and petroleum): insoluble | solubility in methanol, ethanol, aceton, ethyl acetate ([3]; methanol, ethanol, aceton, ethyl acetate): soluble | solubility in water ([3]; water): slightly soluble | stability to oxidation [4]: easily oxidized | inhibitory effect on cathepsin K activity [5]: significant inhibitory effect | inhibition of the cathepsin K activity (collagen degradation) [6]: complete inhibition
